Source: article PMC4428838, “Optimization of Invasion-Specific Effects of Betulin Derivatives on Prostate Cancer Cells through Lead Development” (PLoS ONE, 2015)

Experiment: in vitro
Type: cell-based
Conditions: human
Procedure: To rule out that cytotoxic and antimitotic effects were misinterpreted as anti-invasive, we tested compounds 4, 5, 6, 19 and 20 for inhibition of proliferation and induction of cell death in a 2D monolayer culture (summarized in Fig 6). […] LNCaP cells were more sensitive, with growth inhibition/cytotoxicity starting at 3 μM. The effects on non-transformed, apoptosis-sensitive Ep156T cells were strongest. Here, cytotoxic effects were typically observed already at 0.3–1 μM. […] We further calculated EC50 values for proliferation, apoptosis and cell death for each compound, using the PerkinElmer Harmony software (method validation shown in S7 Fig). The only assay that produced results consistent with those of the betulin derivatives tested in the 2D cell culture model was the proliferation assay (Table 1).
Fig 6 Cytotoxicity tests performed in 2D monolayer culture. A) Cell proliferation/cell number, B) programmed cell death (apoptosis), and C) number of dead cells were assessed by conventional assays, combined with high-content microscopy (Operetta). […] Proliferation was measured as the total number of nuclei (= cells), apoptosis as ratio of caspase-3 positive versus all cells, and cell death as ethidium homodimer-2 positive nuclei versus all cells.
Cells were transferred into CellCarrier 384-well plates (PerkinElmer, Waltham, MA, USA) at a density of 1250 cells/well, using Multidrop dispenser (ThermoFisher Scientific, Waltham, MA, USA). After overnight incubation at 37°C experimental, compounds were added with an ATS Acoustic Transfer System (EDC Biosystems, Fremont, CA, USA). For Ep156T cells the protocol was done in reverse with compounds dispensed before seeding of cells. Fluorescent markers were dispensed in culture medium using ATS system after 72-h compound exposure. Nuclei were stained with cell-permeable Hoechst 33342 (Molecular Probes, Eugene, OR, USA), dead cells with ethidium homodimer-2 (Invitrogen, Carlsbad, CA, USA) and apoptotic cells with NucView caspase-3 detection reagent (Essen Bioscience, Ann Arbor, MI, USA). Cells were imaged with Operetta high-content imager (PerkinElmer, Waltham, MA, USA). Proliferation was measured from the number of nuclei (cells), cell death and apoptosis from positive cells/total cells ratio using Harmony image analysis software (PerkinElmer, Waltham, MA, USA). EC50 values were also assessed with the Harmony software.

SMILES | EC50 at 72 h [µM]
C=C(C)[C@@H]1CC[C@]2(C(=O)O)CC[C@]3(C)C(CCC4[C@@]5(C)Cc6cnoc6C(C)(C)C5CC[C@]43C)C12 (some centres unmarked) [Compound 5] | 10
C=C(C)[C@@H]1CC[C@]2(C(=O)O)CC[C@]3(C)C(CCC4[C@@]5(C)Cc6ncccc6C(C)(C)C5CC[C@]43C)C12 (some centres unmarked) [Compound 20] | 67
